Source: ChEMBL document CHEMBL1135658, “Structure-activity studies of the melanocortin peptides: discovery of potent and selective affinity antagonists for the hMC3 and hMC4 receptors” (J Med Chem, 2002)
Positions of bridges follow the written chain, without caps; N, C: chain ends. Non-standard residues stand in square brackets, D forms with d. Residues, ends and D or L forms follow the SMILES beside them. d2Nal = N[C@H](Cc1ccc2ccccc2c1)C(=O)O

Experiments:
Melanocortin receptor 4 [1] = target: T1, Melanocortin receptor 4 (Homo sapiens, UniProt P32245); experiment: Agonist activity against human Melanocortin-4 receptor; format: functional
Melanocortin receptor 4 [2] = target: T1, Melanocortin receptor 4; experiment: Binding affinity against human Melanocortin-4 receptor
Melanocortin receptor 5 = Melanocortin receptor 5 (Homo sapiens, UniProt P33032); experiment: Binding affinity against human Melanocortin 5 receptor
Melanocortin receptor 3 = Melanocortin receptor 3 (Homo sapiens, UniProt P41968); experiment: Binding affinity for human Melanocortin-3 receptor
Sequence of Melanocortin receptor 3 (P41968 whole entry): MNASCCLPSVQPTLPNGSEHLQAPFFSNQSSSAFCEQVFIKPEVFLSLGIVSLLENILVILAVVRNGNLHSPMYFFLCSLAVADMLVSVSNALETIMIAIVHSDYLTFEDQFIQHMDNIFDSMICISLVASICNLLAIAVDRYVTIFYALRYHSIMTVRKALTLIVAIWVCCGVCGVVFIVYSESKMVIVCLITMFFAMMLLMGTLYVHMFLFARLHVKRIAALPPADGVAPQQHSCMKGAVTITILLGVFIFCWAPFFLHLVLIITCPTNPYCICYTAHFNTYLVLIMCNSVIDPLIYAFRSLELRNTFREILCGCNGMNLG

T1 sequence (P32245 whole entry): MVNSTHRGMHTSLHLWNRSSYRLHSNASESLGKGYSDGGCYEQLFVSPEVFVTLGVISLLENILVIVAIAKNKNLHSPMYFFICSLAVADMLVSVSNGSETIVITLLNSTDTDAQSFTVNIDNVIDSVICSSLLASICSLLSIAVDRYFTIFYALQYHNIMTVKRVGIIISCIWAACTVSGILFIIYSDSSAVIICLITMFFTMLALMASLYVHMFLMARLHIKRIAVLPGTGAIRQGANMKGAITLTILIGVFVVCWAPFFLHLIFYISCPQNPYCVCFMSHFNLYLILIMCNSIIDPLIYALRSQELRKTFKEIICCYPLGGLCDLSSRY
Sequence of Melanocortin receptor 5 (P33032 whole entry): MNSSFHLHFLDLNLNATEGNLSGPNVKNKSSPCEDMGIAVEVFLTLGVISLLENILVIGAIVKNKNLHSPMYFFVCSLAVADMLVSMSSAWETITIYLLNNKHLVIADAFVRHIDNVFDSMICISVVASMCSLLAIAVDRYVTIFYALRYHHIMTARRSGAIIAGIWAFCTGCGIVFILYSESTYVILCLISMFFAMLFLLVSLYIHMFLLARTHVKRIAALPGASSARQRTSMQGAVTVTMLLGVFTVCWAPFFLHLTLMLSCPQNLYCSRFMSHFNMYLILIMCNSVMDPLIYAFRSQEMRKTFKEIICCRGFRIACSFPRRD

Compound	Activity (Melanocortin receptor 4 [1]) [%]	IC50 (Melanocortin receptor 4 [2]) [nM]	EC50 (Melanocortin receptor 5) [nM]	IC50 (Melanocortin receptor 5) [nM]	IC50 (Melanocortin receptor 3) [nM]
CC(=O)[C@@H]1CSSC[C@@H](C(=O)N2CCC[C@H]2C(=O)CN2CCC[C@H]2C(=O)CN[C@@H](CCCCN)C(=O)CN[C@@H](CC(=O)O)C(N)=O)NC(=O)CNC(=O)[C@@H](Cc2c[nH]c3ccccc23)NC(=O)[C@H](CCCN=C(N)N)NC(=O)[C@H](Cc2ccc3ccccc3c2)NC(=O)[C@H](Cc2c[nH]cn2)NC(=O)[C@@H](CCC(=O)O)NC1=O	0				
N=C(N)NCCC[C@@H]1NC(=O)[C@@H](Cc2cccc3ccccc23)NC(=O)CCC(=O)NCCCC[C@@H](C(N)=O)NC(=O)[C@H](Cc2c[nH]c3ccccc23)NC1=O		0.5	530	540	150
CC(=O)N[C@H]1CSSC[C@@H](C(=O)N2CCC[C@H]2C(=O)N2CCC[C@H]2C(=O)N[C@@H](CCCCN)C(=O)N[C@@H](CC(=O)O)C(N)=O)NC(=O)CNC(=O)[C@H](Cc2c[nH]c3ccccc23)NC(=O)[C@H](CCCNC(=N)N)NC(=O)[C@@H](Cc2ccc3ccccc3c2)NC(=O)[C@H](Cc2c[nH]cn2)NC(=O)[C@H](CCC(=O)O)NC1=O (Ac-CEH[d2Nal]RWGCPPKD-NH2; disulfide 1-8)		1.5		16	25
